Experimental data: ChEMBL document CHEMBL2010779, “Dibenzocyclooctadiene lignans from Kadsura polysperma and their antineurodegenerative activities” (2012)

How the values were obtained:
Format in all cases: functional
Conditions in all cases: read-out: Activity
PC-12 [1] = assay: Neuroprotective activity against amyloid beta(25-35)-induced cell death in rat PC12 cells assessed as cell viability at 1 uM incubated for 2 hrs prior to amyloid beta(25-35)-challenge measured after 24 hrs by MTT assay (reference value: 38.8 +/- 1%)
PC-12 [2] = assay: Neuroprotective activity against H2O2-induced cell death in rat PC12 cells assessed as cell viability at 1 uM incubated for 2 hrs prior to H2O2-challenge measured after 24 hrs by MTT assay (reference value: 53.7 +/- 1.7%)
PC-12 [3] = assay: Neuroprotective activity against H2O2-induced cell death in rat PC12 cells assessed as cell viability at 10 uM incubated for 2 hrs prior to H2O2-challenge measured after 24 hrs by MTT assay (reference value: 53.7 +/- 1.7%)
PC-12 [4] = assay: Neuroprotective activity against amyloid beta(25-35)-induced cell death in rat PC12 cells assessed as cell viability at 10 uM incubated for 2 hrs prior to amyloid beta(25-35)-challenge measured after 24 hrs by MTT assay (reference value: 38.8 +/- 1%)
PC-12 [5] = assay: Neuroprotective activity against amyloid beta(25-35)-induced cell death in rat PC12 cells assessed as cell viability at 10 uM incubated for 2 hrs prior to amyloid beta(25-35)-challenge measured after 24 hrs by MTT assay (reference value: 34.8 +/- 0.8%)
PC-12 [6] = assay: Neuroprotective activity against H2O2-induced cell death in rat PC12 cells assessed as cell viability at 10 uM incubated for 2 hrs prior to H2O2-challenge measured after 24 hrs by MTT assay (reference value: 53.1 +/- 1.1%)
PC-12 [7] = assay: Neuroprotective activity against H2O2-induced cell death in rat PC12 cells assessed as cell viability at 1 uM incubated for 2 hrs prior to H2O2-challenge measured after 24 hrs by MTT assay (reference value: 53.1 +/- 1.1%)
PC-12 [8] = assay: Neuroprotective activity against amyloid beta(25-35)-induced cell death in rat PC12 cells assessed as cell viability at 1 uM incubated for 2 hrs prior to amyloid beta(25-35)-challenge measured after 24 hrs by MTT assay (reference value: 34.8 +/- 0.8%)

| SMILES | viability at 1 µM (PC-12 [1]) | viability at 1 µM (PC-12 [2]) | viability at 10 µM (PC-12 [3]) | viability at 10 µM (PC-12 [4]) | viability at 10 µM (PC-12 [5]) | viability at 10 µM (PC-12 [6]) | viability at 1 µM (PC-12 [7]) | viability at 1 µM (PC-12 [8]) |
| --- | --- | --- | --- | --- | --- | --- | --- | --- |
| C/C=C(\C)C(=O)O[C@H]1c2cc(OC)c(OC)c(OC)c2-c2c(cc3c(c2OC)OCO3)[C@H](OC(=O)CC)[C@H](C)[C@H]1C | 43.1% | 54.6% | 60.7% | 39.3% | – | – | – | – |
| COc1cc2c(c(OC)c1OC)-c1c(cc3c(c1OC)OCO3)[C@H](O)[C@H](C)[C@H](C)C2 [ISOGOMISIN O] | 38% | 48.8% | 55.8% | 33.3% | – | – | – | – |
| COc1cc2c(c(OC)c1OC)-c1c(cc3c(c1OC)OCO3)[C@H](OC(=O)/C=C/c1ccccc1)[C@H](C)[C@H](C)C2 [KADSUPHILINS A] | – | – | – | – | 32.3% | 52.5% | 53% | 35.3% |
| COc1cc2c(c(OC)c1OC)-c1c(cc3c(c1OC)OCO3)[C@H](OC(C)=O)[C@H](C)[C@H](C)C2 [KADSURIN] | – | – | – | – | 32.9% | 44% | 57.2% | 35.1% |
| C/C=C(\C)C(=O)Oc1c(OC)c(OC)cc2c1-c1c(cc(OC)c(OC)c1OC)[C@H](O)[C@H](C)[C@H](C)C2 [METHYL SCHISANTHERIN F] | 41.4% | 50.4% | 53.4% | 41% | – | – | – | – |
| C/C=C(/C)C(=O)O[C@H]1c2cc3c(c(OC)c2-c2c(cc(OC)c(OC)c2OC)[C@H](OC(=O)/C(C)=C\C)[C@@H](C)[C@H]1C)OCO3 [POLYSPERLIGNAN A] | 39.9% | 55.8% | 58.2% | 46.4% | – | – | – | – |
| C/C=C(\C)C(=O)O[C@H]1c2cc3c(c(OC)c2-c2c(cc(OC)c(OC)c2OC)[C@H](OC(C)=O)[C@@H](C)[C@H]1C)OCO3 [POLYSPERLIGNAN B] | – | – | – | – | 34.1% | 58.9% | 55.9% | 36.4% |
| C/C=C(/C)C(=O)O[C@H]1c2cc3c(c(OC)c2-c2c(cc(OC)c(OC)c2OC)[C@H](OC(=O)/C=C/c2ccccc2)[C@@H](C)[C@H]1C)OCO3 [POLYSPERLIGNAN E] | 39% | 57.1% | 58.9% | 39.7% | – | – | – | – |
| COc1cc2c(c(OC)c1OC)-c1c(cc3c(c1OC)OCO3)[C@H](OC(=O)/C=C\c1ccccc1)[C@H](C)[C@H](C)C2 [POLYSPERLIGNAN F] | 38.4% | 55.2% | 58.5% | 36.4% | – | – | – | – |
| C/C=C(/C)C(=O)Oc1c(OC)c(OC)cc2c1-c1c(cc(OC)c(OC)c1OC)[C@H](O)[C@H](C)[C@H](C)[C@H]2OC(=O)/C(C)=C\C [POLYSPERLIGNAN I] | 39% | 53.3% | 53.7% | 41.2% | – | – | – | – |
| COc1cc2c(c(OC)c1OC)-c1c(cc3c(c1OC)OCO3)[C@H](O)[C@@H](C)[C@@H](C)C2 [YUNNANKADSURIN B] | – | – | – | – | 33.2% | 53.3% | 51% | 35.2% |
